According to article PMC7822819, “Discovery of a new class of integrin antibodies for fibrosis” (Scientific Reports, 2021):
Where two headings read alike, the source gives them in different places.

What was measured:
human αvβ3 = target: T1, human αvβ3 (Homo sapiens, UniProt P05106+P06756); test: AlphaLISA integrin-ligand binding assay; assay type: biochemical
T1 construct: hαV 1 992; hβ3 1 718; made in house; host or cells: Expi293
Method: (§1) In the AlphaLISA integrin assays, we used a HEPES based buffer (25 mM HEPES pH 7.4, 137 mM NaCl, 1 mM MgCl2, 1 mM MnCl2, 2 mM CaCl2, 2.7 mM KCl, and 0.05% Tween-20). Optimal assay conditions were determined with a titration of the reagents for signal noise ratio (S/N), linear range, etc. For the respective integrins, we used the final concentrations described in Supplemental Table S3. Briefly, the testing antibody (8 μL) was added as a 4x (of Final testing concentration) solution in the HEPES buffer described previously into a 384w AlphaPlate (Perkin Elmer #6005350). Then the integrin and ligand were added sequentially as 8x (4 μL each). Plates were sealed and incubated at room temperature for 2 h. Then 4 × acceptor bead solution (8 μL) was added, and the plates were resealed and incubated at RT for 1 h. Finally, 4 × (8 μL) donor beads solution was added in a darkened room and incubated for 45 min at room temperature. Plates were read on the Envision (Perkin Elmer) in AlphaScreen mode within 3 h of donor bead addition.
(§2) Supplemental Table S3. integrin AlphaLIS A assay reagents and conditions Human A l phal i sa Inte gri n A ssays: Fi nal Condi ti ons […]
(§3) ( batch de pe nde nt) anti body A l phaLi sa A cce ptor havb1 1. 4 nM 1. 0 nMα - Fi brone cti n human Fi brone cti n n/a A cce ptor be ads/ Pe rki n 10. 0 ug/ m 10. 0 ug/ m […]
(§4) havb3 3. 0 nM 10. 0 nMhuman V i trone cti n- GST α - GS T A cce p t o r ug/ m Stre ptavi di n Donor ug/ m tagge d n/a be ads/ Pe rki n 15. 0 l be ads/ Pe rki n El me r 15. 0 l […]
(§5) havb6 0. 1 nM 0. 5 nM 3. […]
(§6) Mouse A l phal i sa Inte gri n A ssays: Fi nal Condi ti ons […]
(§7) m aV b 1 4. 3 nM 1. 0 nMmouse f i brone cti n A bcam α - Fi brone cti n ( Rabbi t […]
(§8) 0 nM 5. […] 0nM be ads/ Pe rki n El me r […]
(§9) m aV b 6 1. 4 nM 2. 5 nMmouse LA P- 6Hi s α - 6x HI S / P e rk i n El m e r ug/ m ug/ m m aV b 8 1. 0 nM 2. 5 nMChe mpartne rn/a( A L 128) 15 l 15 l

mouse αvβ3 = target: T2, mouse αvβ3 (Mus musculus, UniProt O54890+P43406); test: AlphaLISA integrin-ligand binding assay; assay type: biochemical; settings: Fig. 4B; read-out: IC50 Mouse integrin AlphaLISA assays: mαvβ3
T2 construct: mαV 1 988; m β3 1 717; made in house; host or cells: Expi293
Method: as §1, §2, §3, §4, §5, §6, §7, §8, §9

mouse αvβ5 = target: T3, mouse αvβ5 (Mus musculus, UniProt O70309+P43406); test: AlphaLISA integrin-ligand binding assay; assay type: biochemical; settings: Fig. 4B; read-out: IC50 Mouse integrin AlphaLISA assays: mαvβ5
T3 construct: mαV 1 988; m β5 1 719; made in house; host or cells: Expi293
Method: as §1, §2, §3, §4, §5, §6, §7, §8, §9

mouse αvβ8 = target: T4, mouse αvβ8 (Mus musculus, UniProt P43406+Q0VBD0); test: AlphaLISA integrin-ligand binding assay; assay type: biochemical; settings: Fig. 4B; read-out: IC50 Mouse integrin AlphaLISA assays: mαvβ8
T4 construct: mαV 1 988; m β8 1 679; made in house; host or cells: Expi293
Method: as §1, §2, §3, §4, §5, §6, §7, §8, §9

CHOK1 parental cells = test: Cell adhesion assay (Epic) on fibronectin; assay type: cell-based, hamster; settings: in words
CHOK1-α5KO-mαvβ1 cells = target: T5, CHOK1-α5KO-mαvβ1 cells (Mus musculus, UniProt P09055+P43406); test: Cell adhesion assay (Epic) on fibronectin; assay type: cell-based; settings: in words
T5 construct: expressed in transfected cells; host or cells: CHOK1 with endogenous hamster α5 deleted by CRISPR
Method: For plate preparation, Epic 384-well assay plates (Corning #5040) were washed with OptiMEM (Gibco #31985-070) and coated with murine fibronectin (Abcam #ab92784) at a concentration of 0.1 μg/well for CHO-a5KO-mαvβ1 cells; murine vitronectin (Abcam #ab92727) at 0.075 μg/well for CHO-mαvβ3 cells; or murine vitronectin at 0.125 μg/well for CHO-mαvβ5 (all at a volume of 25 μl/well in OptiMEM), for 1 h. Coating solution was then removed by flicking and plates were washed with OptiMEM and blocked with 25 μl/well of assay buffer [1% Ovalbumin (Sigma #A5503-10G) in OptiMEM containing 1X Pen-Strep (Gibco #15140-148)]. A 5-min baseline reading was taken on a Corning Epic Plate Reader (Model: Epic BT-157900) before removing the assay buffer and adding cells pre-incubated with inhibitors. The Epic plate reader detects cellular mass redistribution (adhesion) on the plate surface as a picometer wavelength shift over time. […] Cells were incubated with the inhibitors for 1 h at RT with gentle rocking, after which 50 μL per well was transferred to the Epic assay plate, and a time course of cell adhesion was monitored for an additional 3 h.

human αvβ6 = human αvβ6 (Homo sapiens, UniProt P06756+P18564); test: AlphaLISA integrin-ligand binding assay; assay type: biochemical; set-up: hαV 1 992; hβ6 1 709; made in house; host or cells: Expi293
Method: as §1, §2, §3
havb3 3. 0 nM 10. […]

human αvβ6, sequence (P06756 31-992): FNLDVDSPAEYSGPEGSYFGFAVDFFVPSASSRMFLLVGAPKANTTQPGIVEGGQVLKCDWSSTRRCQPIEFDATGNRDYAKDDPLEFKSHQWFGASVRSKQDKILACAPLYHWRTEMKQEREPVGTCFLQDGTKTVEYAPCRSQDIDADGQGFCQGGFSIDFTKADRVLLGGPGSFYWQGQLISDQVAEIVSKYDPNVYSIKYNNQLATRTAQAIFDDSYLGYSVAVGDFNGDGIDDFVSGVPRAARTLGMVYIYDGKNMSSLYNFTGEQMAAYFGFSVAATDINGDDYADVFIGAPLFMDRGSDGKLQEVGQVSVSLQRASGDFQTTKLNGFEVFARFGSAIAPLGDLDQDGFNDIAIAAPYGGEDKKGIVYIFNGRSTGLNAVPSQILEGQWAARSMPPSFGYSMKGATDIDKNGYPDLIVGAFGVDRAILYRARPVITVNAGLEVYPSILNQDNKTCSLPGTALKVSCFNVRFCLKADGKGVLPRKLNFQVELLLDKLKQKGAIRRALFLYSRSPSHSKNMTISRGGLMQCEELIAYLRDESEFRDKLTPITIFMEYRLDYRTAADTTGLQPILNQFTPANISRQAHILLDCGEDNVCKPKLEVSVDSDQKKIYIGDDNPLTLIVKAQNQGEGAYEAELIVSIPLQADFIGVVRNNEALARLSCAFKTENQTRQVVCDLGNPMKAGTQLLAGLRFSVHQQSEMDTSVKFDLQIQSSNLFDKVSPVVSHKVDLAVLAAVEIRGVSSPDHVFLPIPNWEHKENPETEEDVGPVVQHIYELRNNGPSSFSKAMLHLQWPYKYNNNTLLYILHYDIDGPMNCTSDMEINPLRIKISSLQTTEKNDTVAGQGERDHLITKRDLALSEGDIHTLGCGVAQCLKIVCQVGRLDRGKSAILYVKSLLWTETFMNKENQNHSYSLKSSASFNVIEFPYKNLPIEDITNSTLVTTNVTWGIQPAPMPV
human αvβ6, sequence (P18564 22-709): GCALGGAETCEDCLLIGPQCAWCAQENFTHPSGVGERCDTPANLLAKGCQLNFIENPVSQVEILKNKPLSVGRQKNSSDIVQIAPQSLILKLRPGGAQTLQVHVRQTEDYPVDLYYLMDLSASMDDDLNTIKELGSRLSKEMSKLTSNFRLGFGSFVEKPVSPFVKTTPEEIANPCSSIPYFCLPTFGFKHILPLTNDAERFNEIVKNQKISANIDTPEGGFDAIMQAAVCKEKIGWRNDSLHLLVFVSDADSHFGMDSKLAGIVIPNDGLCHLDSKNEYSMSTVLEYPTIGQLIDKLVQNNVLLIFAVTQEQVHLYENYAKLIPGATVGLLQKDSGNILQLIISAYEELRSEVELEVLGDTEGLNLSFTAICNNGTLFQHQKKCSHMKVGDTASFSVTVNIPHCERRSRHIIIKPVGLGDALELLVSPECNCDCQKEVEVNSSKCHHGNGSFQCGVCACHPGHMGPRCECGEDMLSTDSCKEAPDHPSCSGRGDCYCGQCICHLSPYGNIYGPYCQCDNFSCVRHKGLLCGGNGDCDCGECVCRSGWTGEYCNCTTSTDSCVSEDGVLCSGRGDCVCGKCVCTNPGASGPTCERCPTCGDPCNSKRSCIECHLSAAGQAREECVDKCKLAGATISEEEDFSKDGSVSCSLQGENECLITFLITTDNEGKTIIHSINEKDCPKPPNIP
T1 sequence (P06756 31-992): as the sequence (P06756 31-992) above
T1 sequence (P05106 27-718): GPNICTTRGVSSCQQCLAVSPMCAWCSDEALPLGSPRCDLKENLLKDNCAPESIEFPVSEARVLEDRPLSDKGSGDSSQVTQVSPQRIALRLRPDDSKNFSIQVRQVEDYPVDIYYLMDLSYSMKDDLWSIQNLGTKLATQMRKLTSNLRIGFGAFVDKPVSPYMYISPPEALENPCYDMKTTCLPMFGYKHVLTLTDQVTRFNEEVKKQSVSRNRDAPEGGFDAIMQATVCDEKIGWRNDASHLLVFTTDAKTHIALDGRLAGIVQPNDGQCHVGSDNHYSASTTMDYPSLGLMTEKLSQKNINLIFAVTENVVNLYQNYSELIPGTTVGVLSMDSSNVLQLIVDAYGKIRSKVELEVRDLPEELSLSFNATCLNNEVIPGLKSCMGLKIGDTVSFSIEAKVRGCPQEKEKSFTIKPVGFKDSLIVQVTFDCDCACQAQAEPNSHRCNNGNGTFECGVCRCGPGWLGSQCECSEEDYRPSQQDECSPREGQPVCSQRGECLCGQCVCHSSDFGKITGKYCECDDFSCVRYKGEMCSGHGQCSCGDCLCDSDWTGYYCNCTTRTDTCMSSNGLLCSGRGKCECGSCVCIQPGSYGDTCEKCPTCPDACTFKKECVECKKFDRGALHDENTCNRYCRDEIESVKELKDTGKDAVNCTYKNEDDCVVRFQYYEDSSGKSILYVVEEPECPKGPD
T5 sequence (P43406 31-1044): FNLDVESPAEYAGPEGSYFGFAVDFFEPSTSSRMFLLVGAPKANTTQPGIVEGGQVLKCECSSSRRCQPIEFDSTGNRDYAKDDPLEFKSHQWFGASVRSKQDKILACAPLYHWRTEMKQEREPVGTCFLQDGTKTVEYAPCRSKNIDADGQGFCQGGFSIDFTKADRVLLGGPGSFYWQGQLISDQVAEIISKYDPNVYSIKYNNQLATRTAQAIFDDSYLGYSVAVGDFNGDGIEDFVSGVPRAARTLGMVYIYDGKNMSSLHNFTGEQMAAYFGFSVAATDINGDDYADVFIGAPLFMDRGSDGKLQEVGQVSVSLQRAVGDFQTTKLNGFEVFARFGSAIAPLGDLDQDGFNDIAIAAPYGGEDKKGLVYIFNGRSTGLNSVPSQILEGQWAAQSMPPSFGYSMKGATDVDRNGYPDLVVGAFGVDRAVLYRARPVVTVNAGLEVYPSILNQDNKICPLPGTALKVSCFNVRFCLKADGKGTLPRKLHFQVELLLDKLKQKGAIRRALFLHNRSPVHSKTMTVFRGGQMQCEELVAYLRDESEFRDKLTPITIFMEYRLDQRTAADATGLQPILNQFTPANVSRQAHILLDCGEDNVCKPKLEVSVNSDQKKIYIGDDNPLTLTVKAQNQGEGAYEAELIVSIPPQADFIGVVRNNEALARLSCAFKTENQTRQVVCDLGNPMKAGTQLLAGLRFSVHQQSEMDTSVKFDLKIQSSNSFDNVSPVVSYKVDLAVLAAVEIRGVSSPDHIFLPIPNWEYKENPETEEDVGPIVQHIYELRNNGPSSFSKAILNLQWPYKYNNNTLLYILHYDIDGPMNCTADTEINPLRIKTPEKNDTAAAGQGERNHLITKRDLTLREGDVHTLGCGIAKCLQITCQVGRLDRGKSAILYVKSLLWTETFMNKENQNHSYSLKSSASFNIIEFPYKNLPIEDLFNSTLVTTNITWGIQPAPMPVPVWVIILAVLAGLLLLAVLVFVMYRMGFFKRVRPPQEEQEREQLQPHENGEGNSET
T5 sequence (P09055 21-798): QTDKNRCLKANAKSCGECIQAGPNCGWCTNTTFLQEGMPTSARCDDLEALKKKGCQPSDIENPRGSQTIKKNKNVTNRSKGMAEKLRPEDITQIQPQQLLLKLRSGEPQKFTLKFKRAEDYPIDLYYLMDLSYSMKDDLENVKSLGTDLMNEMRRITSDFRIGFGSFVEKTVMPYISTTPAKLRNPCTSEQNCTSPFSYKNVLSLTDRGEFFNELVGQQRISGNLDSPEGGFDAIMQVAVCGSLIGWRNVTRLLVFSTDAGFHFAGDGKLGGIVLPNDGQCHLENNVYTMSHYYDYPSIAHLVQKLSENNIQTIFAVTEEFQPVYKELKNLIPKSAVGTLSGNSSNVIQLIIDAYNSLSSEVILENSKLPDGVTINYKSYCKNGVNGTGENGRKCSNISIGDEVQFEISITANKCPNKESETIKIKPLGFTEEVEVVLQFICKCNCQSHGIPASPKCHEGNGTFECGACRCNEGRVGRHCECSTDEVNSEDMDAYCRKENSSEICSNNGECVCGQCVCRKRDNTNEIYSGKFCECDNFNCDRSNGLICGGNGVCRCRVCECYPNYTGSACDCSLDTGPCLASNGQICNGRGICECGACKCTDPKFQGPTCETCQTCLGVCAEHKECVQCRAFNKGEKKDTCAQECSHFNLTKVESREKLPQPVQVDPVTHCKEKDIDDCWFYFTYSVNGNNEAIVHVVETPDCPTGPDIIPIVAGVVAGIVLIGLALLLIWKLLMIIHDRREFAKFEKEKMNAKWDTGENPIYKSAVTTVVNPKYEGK

IC50 (human αvβ3; Fig. 3D, assay optimisation, read-out: IC50 human αvβ3 AlphaLISA): 0.15 nM
IC50 (human αvβ3; Fig. 4B, read-out: IC50 Human integrin AlphaLISA assays: hαvβ3): 1.6 nM
IC50 (mouse αvβ3): 0.9 nM
IC50 (mouse αvβ5): 48.3 nM
IC50 (mouse αvβ8): 5.3 nM
Effect on cell adhesion, mouse αvβ1-expressing CHOK1-α5KO cells (CHOK1-α5KO-mαvβ1 cells): potently reduced
IC50 (human αvβ6; Fig. 3D, assay optimisation, read-out: IC50 human αvβ6 AlphaLISA): 3.8 nM
IC50 (human αvβ6; Fig. 4B, read-out: IC50 Human integrin AlphaLISA assays: hαvβ6): 0.5 nM
Structure (SMILES): COc1ccc(C(CC(=O)O)N2CCN(CCCc3ccc4c(n3)NCCC4)C2=O)cn1 (stereo not drawn) [MK-0429]
Effect on cell adhesion, CHOK1 parental cells (CHOK1 parental cells): little inhibitory activity
